Earlier results as cited in PMC7657096 (Medical Mycology, 2020).
Where “and” joins values, the source holds several entries; their conditions need not be identical. Equal entries are not always repeated. Where two headings read alike, the source gives them in different places.

How the values were obtained:
onychomycosis [1] = settings: after 10 months following weekly application for 9 months
onychomycosis [2] = settings: after 48 weeks following daily application for 48 weeks; two values
onychomycosis [3] = system: onychomycosis
onychomycosis [4] = settings: after 12 or 24 weeks of oral terbinafine treatment
onychomycosis [5] = settings: topical solution applied daily for either 24 or 48 weeks
onychomycosis [6] = settings: topical, applied for 52 weeks; two values

CCC(C)(C)c1ccc(CC(C)CN2C[C@@H](C)O[C@@H](C)C2)cc1 (stereo partly shown) [amorolfine]
mycological cure (negative culture and negative microscopy) (onychomycosis [1]): 8%

Cc1cc(C2CCCCC2)n(O)c(=O)c1 [ciclopirox]
mycological cure (negative culture and negative microscopy) (onychomycosis [2]): 29% and 36%

OB1OCc2cc(F)ccc21 [tavaborole]
mycological cure (onychomycosis [3]; topical, applied for 52 weeks): 31.1% | negative culture (onychomycosis [3]; two phase III studies, daily topical treatment for 48 weeks, ref (57)): 87.0% and 85.4%

CN(C/C=C/C#CC(C)(C)C)Cc1cccc2ccccc12 [terbinafine]
trial participants with negative culture after 24 weeks (168 days) (onychomycosis [4]): approximately 80% | mycological cure (onychomycosis [5]): 12.7–18.8%

C=C1CCN([C@H](C)[C@](O)(Cn2cncn2)c2ccc(F)cc2F)CC1 [efinaconazole]
mycological cure (onychomycosis [6]): 53.4% and 55.2%
